According to patent EP0363041A1 (priority 1988, dated 1990):
“And” between values parts separate entries of the source, which are not always exact repeats. Equal entries are not always repeated. Where two headings read alike, the source gives them in different places.

What was measured:
Assay type in all cases: binding, mouse
MO-3 = tested on: MO-3
MO-2 = tested on: MO-2
MO-6 = tested on: MO-6
MO-5 = tested on: MO-5
MO-4 = tested on: MO-4
[1] = tested on: "antibody carrier" (monoclonal antibody of MO-3 strain); experiment: Latex agglutination assay: competition with "normorphine carrier" for "antibody carrier"

Structure (SMILES) | reactivity ratio with morphine, MO-3 (MO-3) | reactivity ratio with morphine, MO-2 (MO-2) | reactivity ratio with morphine, MO-6 (MO-6) | reactivity ratio with morphine, MO-5 (MO-5) | reactivity ratio with morphine, MO-4 (MO-4) | time at which polystyrene latex particles were observed to be agglutinated [1] | time at which polystyrene latex particles were observed to be agglutinated ([1]; 0.3 ppm in urine of healthy men, normorphine carrier of Example 5, 0 ppm gives 16 seconds) [s] | time at which polystyrene latex particles were observed to be agglutinated ([1]; 0.3 ppm in urine of healthy men, normorphine carrier of Example 6, 0 ppm gives 13 seconds) [s]
CN1CC[C@]23c4c5ccc(O)c4O[C@H]2[C@@H](O)C=C[C@H]3[C@H]1C5 [Morphine, morphine] | 100 | 100 | 100 | 100 | 100 | – | – | –
CN1CC[C@]23c4c5ccc(O)c4O[C@H]2[C@@H](O[C@@H]2O[C@H](C(=O)O)[C@@H](O)[C@H](O)[C@H]2O)C=C[C@H]3[C@H]1C5 [M - 6 - G, morphine-6-glucronide] | 0.6 | 440 | 1.0 | 0.9 | 0.9 | – | – | –
CN1CC[C@]23c4c5ccc(O[C@@H]6O[C@H](C(=O)O)[C@@H](O)[C@H](O)[C@H]6O)c4O[C@H]2[C@@H](O)C=C[C@H]3[C@H]1C5 [M - 3 - G, morphine-3-glucronide] | 0.1 | 2.0 | 0.3 | 0.5 | 0.2 | – | – | –
COC(=O)[C@H]1[C@@H](OC(=O)c2ccccc2)C[C@@H]2CC[C@H]1N2C [Cocaine, cocaine] | < 0.001 | < 1.0 | < 0.1 | < 0.001 | < 0.001 | 16 s and 13 s | – | –
COc1ccc2c3c1O[C@H]1[C@@H](O)C=C[C@H]4[C@@H](C2)N(C)CC[C@@]341 [Codeine, codeine] | < 0.1 | < 1.0 | < 0.1 | < 0.1 | < 0.1 | – | – | –
CCOc1ccc2c3c1O[C@H]1[C@@H](O)C=C[C@H]4[C@@H](C2)N(C)CC[C@@]341 [Ethylmorphine, ethylmorphine] | < 0.01 | < 1.0 | < 0.1 | < 0.01 | < 0.01 | – | 16 | 13
CCC(=O)C(CC(C)N(C)C)(c1ccccc1)c1ccccc1 (centres unmarked) [Methadone, methadone] | < 0.001 | < 1.0 | < 0.1 | < 0.001 | < 0.001 | – | – | –
